Measured values: patent publication US20230134859A1, “METHOD FOR SCREENING FOR, METHOD FOR PRODUCING, AND METHOD FOR DESIGNING DRUG ACTIVE INGREDIENTS” (SKY PHARMA CO., LTD., priority 2020, published 2023)

Key:
Type in all cases: in vivo
[1] = tested on: pancreatic β cells; assay: Test Example 9: pancreatic β cells and insulin in transgenic zebrafish embryos; conditions: vs control
Experimental: Transgenic zebrafish expressing pancreatic β-cell GFP
Transgenic zebrafish embryos expressing pancreatic β-cell GFP at 10 hours after fertilization were held with the dorsal side of the head up on a coffin, and a glass capillary was inserted from the dorsal side into a gap just below the midline neural tube at about 2 times the distance between the rostral end and the ear vesicles to the caudal side (pancreatic primordium). A nitrogen gas pressure (15 picosiemens) was applied for 15 to 45 milliseconds, and the test compound was injected. The concentration of the test compound was 100 nM/E3, and 0.025% (final concentration) phenol red was mixed as a tracer of the infusion solution. The injection was performed in pulses with a foot pedal and continued until phenol red was distributed in an elliptical shape with a major axis of 200 μm from the insertion point.
The test compound (100 nM) was injected on a coffin in transgenic zebrafish embryos expressing pancreatic β-cell GFP at 10 hours after fertilization. After injection, embryos were cultured in E3 at 28.5° C. for 14 hours. After chorions were removed with tweezers, the embryos were fixed with 4% paraformaldehyde/PBS at room temperature for 1 hour, and in situ hybridization was performed overnight at 65° C. in the presence of a DIG probe of insulin (ins) according to a conventional method. After washing, β cells were stained by an alkali phosphatase color reaction using an anti-DIG antibody. After staining, the embryos were washed with PBS, embedded in 75% glycerin/PBS and localized, and then microscopically photographed with incident light. The number of test individuals was unified with n=100 for each test compound (FIG. 23).
Transgenic zebrafish embryos expressing pancreatic β-cell GFP at 10 hours after fertilization were injected with the test compound (100 nM or 5 nM) on the coffin. After injection, embryos were cultured in E3 at 28.5° C. for 20 hours in the presence of 0.2 mM phenylthiourea (PTU). After chorions were removed with tweezers, the embryos were fixed with 4% paraformaldehyde/PBS at normal temperature for 1 hour, immunohistochemically reacted with an anti-insulin antibody according to a conventional method, and then reacted with an Alexa fluor 488 anti-mouse IgG secondary antibody. The reacted embryos were washed with PBS, embedded in 75% glycerin/PBS and localized, and then microscopically photographed with 488 nm excitation light (FIG. 24). The number of tested individuals was unified with n=10 for each compound. The insulin amount was quantified by measuring the average fluorescence intensity in a circle with a radius of 100 μm centered on the fluorescence point (FIG. 25).

[2] = tested on: cardiomyocytes; assay: Test Example 8: enhancement of myocardium in zebrafish embryo (nkx2.5 in situ hybridization, blood cells pumped per heartbeat); conditions: test compounds = Compounds 1 to 7
Experimental: Zebrafish embryos at 10 hours after fertilization were held with the dorsal side of the head up on a coffin (plastic plate with V-shaped grooves for holding), and a glass capillary was inserted into a midline between head and ear vesicles (heart primordium). Nitrogen gas pressure (15 picosiemens) was applied for 15 to 45 milliseconds and injected into the gap just below the neural tube. The test compound concentration was 100 μM/E3, and 0.025% (final concentration) phenol red was mixed as a tracer of the injection solution. The injection was performed in pulses with a foot pedal and continued until phenol red was distributed in an elliptical shape with a major axis of 200 μm from the insertion point. After injection, embryos were cultured at 28.5° C. for 14 hours in E3. After chorions were removed with tweezers, the embryos were fixed with 4% paraformaldehyde/PBS at normal temperature for 1 hour, and in situ hybridization was performed overnight at 65° C. in the presence of a DIG probe of nk×2.5 as a cardiac muscle marker according to a conventional method. After washing, cardiomyocytes were stained by an alkali phosphatase color reaction using an anti-DIG antibody. The stained embryos were washed with PBS, embedded in 75% glycerin/PBS and localized, and then microscopically photographed with incident light. The number of tested individuals was unified with n=80 for each compound.
In addition, the zebrafish embryos injected with the test compound by the above-described method were cultured at 28.5° C. until 48 hours after fertilization, embedded in 3% methyl cellulose/E3, and a moving image was photographed. The number of blood cells pumped in one heartbeat in time-lapse was counted n=15 and compared to Ringer injected individuals.

[3] = tested on: retinal ganglion cells; assay: Test Example 5: regeneration induction of mouse retinal neurons by eye drop in high intraocular pressure glaucoma model; conditions: 100 μM eye drops to both eyes three times a day; 10 days to 1 month; vs control
Experimental: High intraocular glaucoma model mouse (transgenic lines specifically expressing green fluorescent protein (GFP) in retinal ganglion cells)
To an adult of a high intraocular pressure glaucoma model mouse, a solution prepared by dissolving 100 μM of the test compound in 1% methyl cellulose/physiological saline was administered by instillation to both eyes at […] per a time three times a day.
As a control experiment (control), an experiment of instilling 1% methyl cellulose/physiological saline containing no test compound was also performed.

[4] = tested on: sox1α, sox2, sox3, and her6; assay: Test Example 1: quantitative PCR of neural stem cell markers in brains of treated zebrafish; conditions: brain of treated zebrafish individuals; ΔΔCt; vs control
Experimental: Moreover, the brains of the treated zebrafish individuals were dissected and washed with sterile distilled water, and then crushed by pipetting or 1 ml syringe suction discharge with 18 G to 24 G needles in 500 μl of Sepasol-RNA I Super G (Nacalai Tesque). A deproteinization operation was conducted once by equivalent phenol/chloroform treatment and once by chloroform treatment, and the supernatant was subjected to RNA purification using an RNA purification column (RNeasy Plus Mini Kit, Qiagen). The elute was reverse-transcribed using a mixed primer of random hexamer and oligo-dT (ReverTra Ace qPCR Kit, TOYOBO) at 37° C. for 15 minutes and 98° C. for 5 minutes, and quantitative PCR of expression levels of sox1α, sox2, sox3, and her6, which are markers of neural stem cells, was performed. Quantitative PCR was performed with SYBER Green Realtime PCR Master Mix (TOYOBO). For the PCR reaction, ABI PRISM 7700 or LightCycler from Roche Diagnostics K.K. was used. Quantification was performed in 3 wells per identical sample (n=3). The obtained data was comparatively quantified by a ΔΔCt method using a normalizer (β-actin, GAPDH, 18S, or the like). In order to confirm that the quantitative reaction was reliable, it was confirmed that the amplification product was in a band by agarose electrophoresis.

With CNS(=O)(=O)c1ccccc1Nc1nc(Nc2ccc(N3CCN(C)CC3)cc2OC)ncc1Cl [Compound 7, 2-[[5-Chloro-2-[2-methoxy-4-(4-methylpiperazin-1-yl)anilino]pyrimidin-4-yl]amino]-N-methylbenzenesulfonamide] the “number of β cells (pancreatic β-cell GFP fluorescence)” value ([1]; 100 nM injected at pancreatic primordium 10 h after fertilization, observed up to 48 h) was “increased as compared with the control individual”, the “production amount of insulin by β cells (in situ hybridization, ins probe)” value ([1]; 100 nM, 14 h after injection, n=100) was “significantly increased as compared with the control individual” and the “amount of cardiomyocytes (in situ hybridization, nkx2.5)” value ([2]; 100 μM injected at heart primordium 10 h after fertilization, vs control, n=80) was “increase in the amount of cardiomyocytes was observed”. The “stroke volume of blood cells (moving image of the heartbeat)” value ([2]; 100 μM, 48 h after fertilization) was “remarkably improved”, the “number of blood cells pumped in one heartbeat” value ([2]; 100 μM, 48 h after fertilization, vs control, n=15) was “remarkable increase in the number of blood cells pumped in one heartbeat” and the “amplification of retinal ganglion cells” value [3] was “amplification of retinal ganglion cells was remarkably observed”. For the same molecule, the “expression levels of sox1α, sox2, sox3, and her6 (quantitative PCR)” value [4] was “significant increase in expression levels”.
